Reference: patent US20170348337A1, “MULTIFUNCTIONAL MEMBRANE-ACTIVE AMINOGLYCOSIDE-PEPTIDE CONJUGATES” (priority 2014, published 2017)
≈ marks a conversion by molar mass, not a printed value. Entries after “also recorded” stand apart in the source; their conditions may differ. Where two headings read alike, the source gives them in different places.

How the values were obtained:
[1] = system: MRSA; experiment: microbe, parasite or virus in culture; type: cell-based; conditions: isolate MRSA
Excerpt: (§1) Pentobra was screened against a broad panel of microbial pathogens, including strains of E. coli, MRSA, Klebsiella (Kleb), Acinetobacter (AcB), Vancomycin-Sensitive Enterococci (VSE) and Vancomycin-Resistant Enterococci (VRE), and specifically including E. faecalis samples. […] The experimenter reported the minimum inhibitory concentration (MIC) in mass units per unit volume (μg/mL) for each compound, and MIC data were converted into molar concentrations (μM) due to the large difference between the molecular weight of tobramycin (467.5 g/mol) and Pentobra (2277 g/mol).

[2] = system: Acinetobacter (AcB); experiment: microbe, parasite or virus in culture; type: cell-based; conditions: Acinetobacter; isolate AcB, PM1434; read-out: MIC
Excerpt: as §1

[3] = system: E. coli; experiment: microbe, parasite or virus in culture; type: cell-based; conditions: Escherichia coli
Excerpt: as §1

[4] = system: Vancomycin-Resistant Enterococci (VRE); experiment: microbe, parasite or virus in culture; type: cell-based; conditions: Enterococcus, read-out: MIC
Excerpt: as §1

[5] = system: P. acnes in comedone extracts; experiment: microcomedone assay (human comedone extracts); type: cell-based, Propionibacterium acnes; conditions: similar drug concentrations (FIG. 11C)
[6] = system: MCP-1, MDC, IP-10 and IL-12p40 in human monocytes; experiment: chemokine/cytokine gene expression in P. acnes-stimulated monocytes (real-time PCR); type: cell-based; conditions: 24 hrs co-treatment
Experimental: Peripheral blood mononuclear cells (PBMCs) were isolated from whole blood of normal healthy donors as approved by the Institutional Review Board at UCLA using Ficoll-Paque gradients (GE Healthcare, Piscataway, N.J.) and plated onto six-well tissue culture plates (20×10^6-30×10^6 per well) for 2 hours in RPMI 1640 medium (Invitrogen Life Technologies, Carlsbad, Calif.) supplemented with 1% fetal calf serum (Omega Scientific, Tarzana, Calif.). Nonadherent cells were removed by rigorously washing three times with RPMI. Adherent monocytes were stimulated (co-treated) with media or P. acnes in the presence of tobramycin or Pentobra in 10% fetal calf serum. P. acnes was used at an MOI of 0.5 and cells were cultured for 24 hours at 37° C.
Monocytes were stimulated with media or P. acnes in the presence of tobramycin or Pentobra. Total RNA was isolated using Trizol reagent (Invitrogen, Carlsbad, Calif.) following manufacturer's protocol and treated with RNase-free DNase. RNA concentration and quality were determined by spectrophotometry. RNA samples were reverse-transcribed to cDNA using iScript cDNA synthesis kit (Bio-Rad, Hercules, Calif.). Reactions were done at 25° C. for 5 minutes, 42° C. for 30 minutes and 85° C. for 5 minutes. Real-time PCR was applied using iQ SYBR Green supermix (Bio-Rad). Forty cycles were carried out at 95° C. for 5 minutes, then 95° C. for 10 seconds, 55° C. for 20 seconds, 72° C. for 20 seconds. GAPDH was used as a control. Gene expression level was quantified by the comparative method 2-ΔΔCT.
Monocytes were cultured and evaluated for cytokine and chemokine expression by ELISA and real time PCR after 24 hrs.

[7] = system: E. coli ML35; experiment: E. coli ML35 cell permeabilization assay (ONPG→ONP conversion); type: cell-based; conditions: 90 min, 37° C.
Experimental: E. coli ML35 [lacZ-(Con) ΔlacY] cannot take up the lactose mimic ONPG unless cell membrane integrity is compromised. Upon membrane permeabilization ONPG can diffuse into the bacterial cell cytoplasm where it is hydrolyzed by β-galactosidase into galactose and ONP. Since ONP absorbs at 400 nm, the permeabilization kinetics of membrane-disrupting agents can be monitored by OD400 absorbance measurement. Methodology here was very similar to previous studies. Log-phase E. coli cells were grown as described above, washed and resuspended in 10 mM Tris supplemented with 0.01 volume (1% vol/vol) TSB at pH 7.4 (Tris-TSB). In triplicate, bacteria (5×10^6 cells/well) were exposed to various concentrations of antibiotic (Pentobra, tobramycin, Pen peptide) in the presence of 2.5 mM ONPG for 90 min at 37° C. The kinetics of ONPG hydrolysis were measured by determining the absorbance at 400 nm using a plate reader spectrophotometer.
To characterize the membrane activity of Pentobra on bacteria, its permeabilization kinetics were monitored on live cells by conducting an enzymatic assay for the conversion of ortho-nitrophenyl β-D-galactopyranoside (ONPG) to ortho-nitrophenol (ONP) on the E. coli strain ML35. E. coli ML35 [lacZ-(Con) ΔlacY] constitutively expresses β-galactosidase (β-gal) but lacks the lactose permease necessary for uptake of the lactose analogue ONPG. […]

[8] = system: bioluminescent Staphylococcus aureus; experiment: in vivo murine implantation (implant infection) model; parameters: species or system lysEGFP mice; conditions: PMMA-coated titanium disks, subcutaneous; throughout 5 days; p<0.05
Experimental: Methods: Survival surgery was performed in which circular orthopedic-grade titanium disks were implanted subcutaneously on the backs of 25 lysEGFP mice. Disks were coated in poly-methyl-methacrylate (PMMA) cement mixed with either Pentobra, Tobramycin, or no antibiotic (control). The disks were inoculated with 1×10^7 colony-forming units (CFU) of bioluminescent Staphylococcus aureus. Bacterial burden and neutrophil inflammation were followed via bioluminescent and fluorescent imaging, respectively, on post-operative days (POD) 0, 1, 3, and 5. Implants and surrounding tissue were subsequently removed and cultured. Statistical assessment of data was performed via ANOVA analysis.

[9] = system: E. coli; experiment: antimicrobial activity (MIC) of P-L-A conjugates; type: cell-based

## NC[C@H]1O[C@H](O[C@H]2[C@H](O)[C@@H](O[C@H]3O[C@H](CO)[C@@H](O)[C@H](N)[C@H]3O)[C@H](N)C[C@@H]2N)[C@H](N)C[C@@H]1O [tobramycin]
[1]; Staphylococcus aureus, F2806774, read-out: MIC
  MIC: > 274 µM
[1]; H2867813
  MIC: >274 µM
[2]
  MIC: 34 µM (≈ 15.9 µg/mL)
[3]; ATCC25922, isolate ATCC 25922, Ecoli (second entry), read-out: MIC
  MIC: 2 µM (≈ 0.935 µg/mL)
[3]; isolate ATCC Ecoli, 25922 (first entry)
  MIC: 2 µM (≈ 0.935 µg/mL)
[3]; isolate Ecoli,YD461, read-out: MIC
  MIC: 34 µM (≈ 15.9 µg/mL)
[4]; VRE, isolate F6541102, VRE
  MIC: > 274 µM
[4]; VRE, isolate H6926031, VRE*
  MIC: 68 µM (≈ 31.8 µg/mL)
[4]; VRE, isolate M6865034, VRE
  MIC: > 274 µM
[4]; VRE, isolate S3899836, VRE^? (second entry)
  MIC: > 274 µM
[4]; VRE, isolate VRE, 24670
  MIC: > 274 µM
[4]; VRE, isolate VRE, S3899836
  MIC: > 274 µM
[4]; isolate 24670, VRE^? (second entry)
  MIC: > 274 µM
[5]
  reduction in CFU: less than ten
[6]
  inhibition of IL-12p40 gene expression: little to no inhibition
  inhibition of MCP-1 expression, comparison of the antibiotics: more effective
[6]; p<0.001
  P. acnes-induced IP-10 expression: completely abrogated
[7]
  inner membrane permeabilization (400 nm absorbance, ONPG→ONP): no membrane permeabilization occurred; also recorded: comparable to background
[8]
  bacterial bioluminescent signal compared to control group: significantly lower bacterial bioluminescent signal
[9]
  MIC (μM) E. coli (mid-log): 6.25 μM
